Data: US10954221B2, “GLP-1R agonists and uses thereof” (QILU REGOR THERAPEUTICS INC., priority 2019, dated 2021)

Assays:
GLP1R [1] = molecular target: T1, GLP1R (Homo sapiens, UniProt P43220); experiment: GLP1R cAMP assay (HTRF), HEK293/GLP-1R/CRE/Luc, Clone 4
Target sequence in this assay (P43220 24-463): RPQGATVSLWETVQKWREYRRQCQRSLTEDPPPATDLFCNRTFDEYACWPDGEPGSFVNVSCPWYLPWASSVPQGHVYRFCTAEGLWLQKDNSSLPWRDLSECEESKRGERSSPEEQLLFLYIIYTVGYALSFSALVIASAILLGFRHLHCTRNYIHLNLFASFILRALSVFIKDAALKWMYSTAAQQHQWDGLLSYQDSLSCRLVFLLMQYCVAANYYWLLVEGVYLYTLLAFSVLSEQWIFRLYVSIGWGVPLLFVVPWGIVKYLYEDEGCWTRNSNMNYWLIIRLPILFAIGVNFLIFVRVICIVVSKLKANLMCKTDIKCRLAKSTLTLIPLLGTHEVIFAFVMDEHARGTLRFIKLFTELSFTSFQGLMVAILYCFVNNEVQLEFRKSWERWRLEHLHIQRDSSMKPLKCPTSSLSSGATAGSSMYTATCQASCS
Description: GLP-1R-mediated agonist activity was determined with a cell-based functional assay utilizing an HTRF (Homogeneous Time-Resolved Fluorescence) cAMP detection kit (cAMP Dynamic 2 Assay Kit; CisBio cat #62AM4PEC) that measures cAMP levels in the cell. The method is a competitive immunoassay between native cAMP produced by the cells and exogenous cAMP labeled with the dye d2. The tracer binding is visualized by a mAb anti-cAMP labeled with Cryptate. The specific signal (i.e., energy transfer) is inversely proportional to the concentration of cAMP in either standard or experimental sample.
The human GLP-1R coding sequence (NCBI Reference Sequence NM_002062) was subcloned into pcDNA3.1+/Hygro vector (Invitrogen) and transfected into HEK293/CRE/Luc parental cell line. A cell line stably expressing the receptor was isolated.
Varying concentrations of each compound to be tested (in DMSO) were diluted in DMSO to obtain 200× compound working solution first and then 50 nl compounds were added to a white 384-well assay plate (Greiner 784075) with ECHO. The final DMSO concentration was 0.5%.
Cells were removed from cryopreservation, re-suspended in 5 mL of Dulbecco's Phosphate Buffered Saline (DPBS-Sigma Cat #D8537) and centrifuged at 900×g for 5 min at 22° C. The cell pellet was then re-suspended in 1 mL of assay buffer [DPBS with 500 μM IBMX (Sigma #15879) and 0.1% BSA (Sigma #A1933). IBMX and BSA were freshly added on the day of assay]. A 10 μL sample of the cell suspension was counted on an Invitrogen Countess II to determine cell viability and cell count per mL. The remaining cell suspension was then adjusted with assay buffer to deliver 1000 viable cells per well using a Matrix Combi Multidrop reagent dispenser. 10 μL cell suspensions were added to each well
of the assay plate which already contains compound. The plate was sealed and incubated at 37° C. with 5% CO2 for 30 minutes.
Following the 30 minute incubation, 5 μL of labeled d2 cAMP and 5 μL of anti-cAMP antibody (both diluted 1:20 in cell lysis buffer; as described in the manufacturer's assay protocol) were added to each well of the assay plate. The plates were then incubated at room temperature and after 60 minutes, changes in the HTRF signal were read with an Envision multi-label plate reader using excitation of 330 nm and emissions of 615 and 665 nm. Raw data were converted to nM cAMP by interpolation from a cAMP standard curve (as described in the manufacturer's assay protocol) and the percent effect was determined relative to a saturating concentration of the full agonist GLP-17-37 (10 nM) included on each plate. EC50 determinations were made from agonist dose-response curves analyzed with a curve fitting program using a 4-parameter logistic dose response equation.

GLP1R [2] = molecular target: T1, GLP1R; set-up: Emax: dose or concentration left out as unconfirmed; conditions: for Emax: CHO-K1, […], read-out: β-arrestin recruitment Bmax (%)
Target sequence in this assay (P43220 24-463): as above
Target sequence in this assay (P32121 whole entry partner): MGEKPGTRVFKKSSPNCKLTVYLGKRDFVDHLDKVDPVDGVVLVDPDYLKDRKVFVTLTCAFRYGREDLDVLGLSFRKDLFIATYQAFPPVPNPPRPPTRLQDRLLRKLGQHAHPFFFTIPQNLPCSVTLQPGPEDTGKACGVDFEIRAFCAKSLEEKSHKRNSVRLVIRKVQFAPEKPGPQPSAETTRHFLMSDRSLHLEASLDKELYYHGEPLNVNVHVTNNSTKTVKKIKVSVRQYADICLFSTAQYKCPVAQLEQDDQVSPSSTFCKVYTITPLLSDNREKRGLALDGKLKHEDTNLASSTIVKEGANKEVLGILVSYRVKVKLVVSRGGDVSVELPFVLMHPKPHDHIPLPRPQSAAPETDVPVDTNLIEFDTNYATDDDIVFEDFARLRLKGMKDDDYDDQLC

GLP1R [3] = molecular target: T1, GLP1R; experiment: β-Arrestin-mediated GLP1R internalization assay (PathHunter U2OS cells); type: cell-based; set-up: host or cells: PathHunter engineered U2OS cells; conditions: averaged Bmax where applicable, Percentage of Control GLP-1 (7-37), top 10 μM, 180 min
Excerpt: A similar assay can also be used to assess the extent of signal attenuation due to GLP-1R internalization (the Internalization Assay). In this assay, activated GLP1R Internalization cells were engineered to co-express an untagged GLP1R, Enzyme Acceptor (EA) tagged β-Arrestin, and a ProLink™ (PK) tag localized to the endosomes. Activation of the GLP1R induces β-Arrestin recruitment, which leads to internalization of the Receptor/Arrestin-EA complex in PK-tagged endosomes. This forces complementation of the two β-galactosidase enzyme fragments (EA and PK) to form a functional enzyme that hydrolyzes substrate to generate a chemiluminescent signal.
Frozen cells were quickly thawed and 10 mL of cell plating medium (provided by the kit) was added to thawed cells. Cells were stored in a 37° C. incubator and kept for approximately 48 hours until ready for the assay.
Reference and test compounds were dissolved in 100% DMSO. […] 5 μL of this solution was added to 20 μL cell medium in assay plate for a final top concentration of 10 μM. Plates were incubated at 37° C. for 180 min.
Following 180 min incubation, detection reagents were made up by combining 1 part Galacton Star Substrate with 5 parts Emerald II™ Solution, and 19 parts of PathHunter Cell Assay Buffer, respectively. 12.5 μL detection reagent was added to each well. The plates were then incubated at room temperature for 60 min. Plates were then read on Envision for 0.1 sec/well.
EC50 determinations were made from agonist dose-response curves analyzed with a curve fitting program using a 4-parameter logistic dose response equation.
Target sequence in this assay (P43220 24-463): as the sequence (P43220 24-463) above
Target sequence in this assay (P32121 whole entry partner): as the sequence (P32121 whole entry partner) above

| SMILES | EC50 (GLP1R [1]) | Emax (GLP1R [2]) | β-arrestin internalization Bmax (POC) (GLP1R [3]) | β-arrestin recruitment Bmax (%) (GLP1R [2]; partial maximum relative effect at the highest concentration tested (top 10 μM), relative to Bmax of GLP-1 (7-37), PathHunter CHO-K1 GLP1R β-Arrestin cells) |
| --- | --- | --- | --- | --- |
| O=C(O)c1ccc2nc(Cc3ccc(-c4nc(OCc5ccc(Cl)cc5F)ncc4F)c(F)c3)n(C[C@@H]3CCO3)c2c1 [Compound 82, (S)-2-(4-(2-(4-chloro-2-fluorobenzyloxy)-5-fluoropyrimidin-4-yl)-3-fluorobenzyl)-1-(oxetan-2-ylmethyl)-1H-benzo[d]imidazole-6-carboxylic acid] | < 15 nM | 20.1% | 13.8 POC |  |
| O=C(O)c1ccc2nc(Cc3ccc(-c4ccc(F)c(OCc5ccc(Cl)cc5F)n4)c(F)c3)n(C[C@@H]3CCO3)c2c1 [Compound 83, (S)-2-(4-(6-((4-chloro-2-fluorobenzyl)oxy)-5-fluoropyridin-2-yl)-3-fluorobenzyl)-1-(oxetan-2-ylmethyl)-1H-benzo[d]imidazole-6-carboxylic acid] | < 15 nM | 44.6% | 27.8 POC |  |
| O=C(O)c1ccc2nc(Cc3ccc(-c4ccc(F)c(OCc5ccc(Cl)cc5F)c4)cc3F)n(C[C@@H]3CCO3)c2c1 [Compound 85] | < 15 nM | 37% | 29.5 POC |  |
| O=C(O)c1ccc2nc(Cc3ccc(-c4nccc(OCc5ccc(Cl)cc5F)n4)cc3F)n(C[C@@H]3CCO3)c2c1 [Compound 86, (S)-2-(4-(4-((4-chloro-2-fluorobenzyl)oxy)pyrimidin-2-yl)-2-fluorobenzyl)-1-(oxetan-2-ylmethyl)-1H-benzo[d]imidazole-6-carboxylic acid] | < 15 nM | 33.5% | 41.8 POC |  |
| O=C(O)c1ccc2nc(Cc3ccc(-c4ccnc(OCc5ccc(Cl)cc5F)n4)cc3F)n(C[C@@H]3CCO3)c2c1 [Compound 87, (S)-2-(4-(2-((4-chloro-2-fluorobenzyl)oxy)pyrimidin-4-yl)-2-fluorobenzyl)-1-(oxetan-2-ylmethyl)-1H-benzo[d]imidazole-6-carboxylic acid] | < 15 nM | 33.1% | 23.9 POC |  |
| O=C(O)c1ccc2nc(Cc3ccc(-c4ccc(F)c(OCc5ccc(Cl)cc5F)n4)cc3F)n(C[C@@H]3CCO3)c2c1 [Compound 88, (S)-2-(4-(6-(4-chloro-2-fluorobenzyloxy)-5-fluoropyridin-2-yl)-2-fluorobenzyl)-1-(oxetan-2-ylmethyl)-1H-benzo[d]imidazole-6-carboxylic acid] | < 15 nM | 44.6% | 29.2 POC |  |
| O=C(O)c1ccc2nc(Cc3ccc(-c4cccc(OCc5ccc(Cl)cc5F)c4)cc3F)n(C[C@@H]3CCO3)c2c1 [Compound 89, (S)-2-((3′-((4-chloro-2-fluorobenzyl)oxy)-3-fluoro-[1,1′-biphenyl]-4-yl)methyl)-1-(oxetan-2-ylmethyl)-1H-benzo[d]imidazole-6-carboxylic acid] | < 15 nM | 25.3% | 20.0 POC |  |
| O=C(O)c1ccc2nc(Cc3ccc(-c4ncc(F)c(OCc5ccc(Cl)cc5F)n4)cc3F)n(C[C@@H]3CCO3)c2c1 [Compound 90, (S)-2-(4-(4-((4-chloro-2-fluorobenzyl)oxy)-5-fluoropyrimidin-2-yl)-2-fluorobenzyl)-1-(oxetan-2-ylmethyl)-1H-benzo[d]imidazole-6-carboxylic acid] | < 15 nM | 29.5 ± 3.21% | 21.6 POC |  |
| O=C(O)c1ccc2nc(Cc3ccc(-c4nc(OCc5ccc(Cl)cc5F)ncc4F)cc3F)n(C[C@@H]3CCO3)c2c1 [Compound 91, (S)-2-(4-(2-(4-chloro-2-fluorobenzyloxy)-5-fluoropyrimidin-4-yl)-2-fluorobenzyl)-1-(oxetan-2-ylmethyl)-1H-benzo[d]imidazole-6-carboxylic acid] | < 15 nM | 35.8% | 21.6 POC |  |
| O=C(O)c1ccc2nc(Cc3ccc(-c4cccc(OCc5ccc(Cl)cc5F)n4)cc3)n(C[C@@H]3CCO3)c2c1 [Compound 94, (S)-2-(4-(6-((4-chloro-2-fluorobenzyl)oxy)pyridin-2-yl)benzyl)-1-(oxetan-2-ylmethyl)-1H-benzo[d]imidazole-6-carboxylic acid] | < 15 nM |  | 27.3 ± 7.75 POC | 33.3% |
| O=C(O)c1ccc2nc(Cc3ccc(-c4cccc(OCc5ccc(Cl)cc5F)n4)nc3)n(C[C@@H]3CCO3)c2c1 [Compound 100, (S)-2-((6′-(4-chloro-2-fluorobenzyloxy)-2,2′-bipyridin-5-yl)methyl)-1-(oxetan-2-ylmethyl)-1H-benzo[d]imidazole-6-carboxylic acid] | > 1000 nM | 0.971% | 0.881 POC |  |
| O=C(O)c1ccc2nc(Cc3ccc(-c4cccc(OCc5ccc(Cl)cc5F)n4)cn3)n(C[C@@H]3CCO3)c2c1 [Compound 101, (S)-2-((6-((4-chloro-2-fluorobenzyl)oxy)-[2,3′-bipyridin]-6′-yl)methyl)-1-(oxetan-2-ylmethyl)-1H-benzo[d]imidazole-6-carboxylicacid] | > 1000 nM | 1.05% | 3.08 POC |  |
| O=C(O)c1ccc2nc(Cc3ccc(-c4cccc(OCc5ccc(Cl)cc5F)n4)c(F)c3F)n(C[C@@H]3CCO3)c2c1 [Compound 262, (S)-2-(4-(6-(4-chloro-2-fluorobenzyloxy)pyridin-2-yl)-2,3-difluorobenzyl)-1-(oxetan-2-ylmethyl)-1H-benzo[d]imidazole-6-carboxylic acid] | < 15 nM | 47.3 ± 4.55% | 25.4 ± 1.39 POC |  |
| O=C(O)c1ccc2nc(Cc3ccc(-c4ccc(F)c(OCc5ccc(F)cc5F)n4)c(F)c3)n(C[C@@H]3CCO3)c2n1 [Compound 267, (S)-2-(4-(6-(2,4-difluorobenzyloxy)-5-fluoropyridin-2-yl)-3-fluorobenzyl)-3-(oxetan-2-ylmethyl)-3H-imidazo[4,5-b]pyridine-5-carboxylic acid] | < 15 nM | 41.7 ± 3.45% | 30.2 ± 6.53 POC |  |
| O=C(O)c1ccc2nc(Cc3ccc(-c4ccc(F)c(OCc5ccc(F)cc5F)n4)cc3F)n(C[C@@H]3CCO3)c2n1 [Compound 277, (S)-2-(4-(6-(2,4-difluorobenzyloxy)-5-fluoropyridin-2-yl)-2-fluorobenzyl)-3-(oxetan-2-ylmethyl)-3H-imidazo[4,5-b]pyridine-5-carboxylic acid] | < 15 nM | 39.3 ± 4.96% | 23.0 POC |  |
| O=C(O)c1ccc2nc(Cc3ccc(-c4cccc(OCc5ccc(Cl)cc5F)n4)cc3F)n(C[C@@H]3CCO3)c2n1 [Compound 281, 2-[[4-[6-[(4-chloro-2-fluoro-phenyl)methoxy]-2-pyridyl]-2-fluoro-phenyl]methyl]-3-[[(2S)-oxetan-2-yl]methyl]imidazo[4,5-b]pyridine-5-carboxylic acid] | < 15 nM | 48.5 ± 6.64% | 36.5 POC |  |
| O=C(O)c1ccc2nc(Cc3ccc(-c4cccc(OCc5ccc(F)cc5F)n4)c(F)c3)n(C[C@@H]3CCO3)c2n1 [Compound 290, (S)-2-(4-(6-((2,4-difluorobenzyl)oxy)pyridin-2-yl)-3-fluorobenzyl)-3-(oxetan-2-ylmethyl)-3H-imidazo[4,5-b]pyridine-5-carboxylic acid] | < 15 nM | 39.9 ± 4.4% | 21.6 ± 3.52 POC |  |
| N#Cc1ccc(COc2ncc(F)c(-c3ccc(Cc4nc5ccc(C(=O)O)nc5n4C[C@@H]4CCO4)c(F)c3)n2)c(F)c1 [Compound 291, (S)-2-(4-(2-((4-cyano-2-fluorobenzyl)oxy)-5-fluoropyrimidin-4-yl)-2-fluorobenzyl)-3-(oxetan-2-ylmethyl)-3H-imidazo[4,5-b]pyridine-5-carboxylic acid] | < 15 nM | 29.4 ± 6.84% | 22.8 ± 0.142 POC |  |
| N#Cc1ccc(COc2cccc(-c3ccc(Cc4nc5ccc(C(=O)O)c(F)c5n4C[C@@H]4CCO4)cc3F)n2)c(F)c1 [Compound 307, (S)-2-(4-(6-((4-cyano-2-fluorobenzyl)oxy)pyridin-2-yl)-3-fluorobenzyl)-7-fluoro-1-(oxetan-2-ylmethyl)-1H-benzo[d]imidazole-6-carboxylic acid] | < 15 nM | 46.8 ± 7.21% | 33.8 ± 2.73 POC |  |
| O=C(O)c1ccc2nc(Cc3ccc(-c4cccc(OCc5ccc(Cl)cc5F)n4)c(F)c3)n(C[C@@H]3CCO3)c2c1F [Compound 308, (S)-2-(4-(6-((4-chloro-2-fluorobenzyl)oxy)pyridin-2-yl)-3-fluorobenzyl)-7-fluoro-1-(oxetan-2-ylmethyl)-1H-benzo[d]imidazole-6-carboxylic acid] | < 15 nM | 62.8 ± 4.09% | 48.8 ± 6.11 POC |  |
